For data set [1], the system named is disaggregated rat osteoclasts.
Experimental: (§1) Bone resorption assay: Human cortical bone slices were prepared as previously described (Zaidi et al. Quart J.Exp. Physiol. 73, p. 471 (1988). The slices were then cut into pieces, each measuring about 3mm². Newborn Wistar rats were killed by decapitation and their femora and tibiae removed. The bones were freed of adherent soft tissues and cut across their epiphyses in Medium 199 with foetal calf serum (FCS, 10%, v/v) and antibiotics (Flow Laboratories, UK, Ltd.). Osteoclasts were mechanically disaggregated by curetting the bones of each rat with a scalpel blade into Medium 199 (1 ml) and agitating the suspension with a pipette. Large fragments were allowed to settle for 10 seconds, before the supernatant was dropped onto 30 to 35 bone slices placed in a well of a Sterilin 100 18mm multiwell dish. Following incubation (37°C; 15 minutes), the bone slices were removed, washed gently in Minimal Essential Medium with FCS (10%, v/v) (MEM/FCS) and placed in separate wells (each well contained 5-6 slices and 900 µl MEM/FCS). […] After further incubation (37°C, 10% humidified CO₂, 10 minutes), 100 µl of MEM/FCS containing the test substance was added. Finally, bone slices were incubated overnight (37°C, 10% humidified CO₂, 18 hours) and quantified in terms of cell numbers and bone resorption. After fixation in glutaraldehyde, cells were stained with toluidine blue and examined by transmitted light microscopy. In order to rule out toxic effects, osteoclasts were counted on three slices for every variable and their numbers were then compared on hormone-treated and control bone slices. The slices were bleached by immersion in sodium hypochlorite solution (10% v/v) for 30 minutes and dehydrated in aqueous ethanol (80% v/v). The slices were then sputter coated with gold, randomized and examined in a Cambridge 360 Scanning Electron Microscope (Cambridge Instruments, Cambridgeshire). Osteoclastic excavations, each defined by a continuous border within an area of unresorbed bone were counted. The area of bone surface resorbed was calculated by tracing the outline of the concavities into an image processor (Sight Systems, Newbury, Berks).
The test system of data set [2] is disaggregated rat osteoclasts. Description: bone resorption assay: isolated osteoclasts on human cortical bone slices, scanning electron microscopy with image analysis.
Experimental: as §1
The next data set concerns isolated osteoclasts. Description: second messenger pathways and functional responses of isolated osteoclasts. In kind it is cell-based. From the text:
Thus, it appears that osteoclast activity may be restrained via two receptor types; calcitonin acts at both while amylin acts mainly via only one, reducing motility, reducing resorption and probably acting via the second messenger cAMP (Zaidi et. al. 1990, J. Endocrinol 126, 473-481).

Data set [3] is described as follows: plasma calcium after intravenous infusion in patients with Paget's disease. In kind it is in vivo. Here is the method:
Furthermore, 1 hour of intravenous infusion of 150 pmol/Kg/min amylin into four human patients with Paget's disease reduced plasma calcium by amounts ranging from […].

Data set [4] is described as follows: plasma calcium during and after continuous intravenous infusion into rabbits. The following applies: infusion of 500 pmol per minute over 90 minutes. It is filed as in vivo. The method, then: Animal experiments: Fifty gram male Wistar rats (mean weight ± SEM, 51 ± 1.2g, Charles Rivers, Margate, Kent) were fasted overnight with ad lib access to water and used for experiments. […] Following injection the animals were bled into heparinized syringes via the dorsal aorta under light ether anaesthesia. In another set of experiments, rabbits (mean weight ± SEM, 3.2 ± 0.3 kg) were restrained in wooden cages and sedated with Hypnorm (1 ml) (Janssen, Denmark). They were infused with saline or amylin (500 pmol min ⁻¹) for 90 minutes via a 21 G needle inserted into the lateral ear vein. The needle was connected to a pump via a polythene cannula (Portex, 00, Hythe, Kent). Blood samples were taken at timed intervals before and after the infusion was commenced. Plasma was separated and calcium levels measured by DC Plasma Emission Spectrophotometry.

A short description of data set [5]: in vivo rat hypocalcaemia assay: plasma calcium after intravenous injection of the peptide. Set-up: species or system male Wistar rats. Here is the method:
The effects of amylin and deamidated amylin on calcium metabolism in the rat and rabbit were investigated by two different methods. First, in vivo hypocalcaemic activity was assessed by measuring plasma calcium levels after injection of the peptide in 50 g rats. Next, in vitro resorption of cortical bone by disaggregated rat osteoclasts was quantified by scanning electron microscopy together with image analysis. […] Both are inhibitors of osteoclastic resorption and lower plasma calcium in both rats and rabbits. Described below are experiments which show the biological activity of both amylin and deamidated amylin using the in vivo rat hypocalcaemia assay and an in vitro bone resorption system. In addition, the effect on plasma calcium levels of infusion of high doses of amylin into rabbits is described.
Animal experiments: Fifty gram male Wistar rats (mean weight ± SEM, 51 ± 1.2g, Charles Rivers, Margate, Kent) were fasted overnight with ad lib access to water and used for experiments. […] Following injection the animals were bled into heparinized syringes via the dorsal aorta under light ether anaesthesia. In another set of experiments, rabbits (mean weight ± SEM, 3.2 ± 0.3 kg) were restrained in wooden cages and sedated with Hypnorm (1 ml) (Janssen, Denmark). […] Plasma was separated and calcium levels measured by DC Plasma Emission Spectrophotometry.

Where [6] appears, read: peptides not all compared in the same assay.

Read-outs that look alike come from different tables or passages of the source. Ends that are not written are not given here.

In the case of `CC[C@H](C)[C@H](NC(=O)[C@H](C)NC(=O)CNC(=O)[C@H](Cc1ccccc1)NC(=O)[C@H](CC(N)=O)NC(=O)[C@H](CC(N)=O)NC(=O)[C@H](CO)NC(=O)[C@H](CO)NC(=O)[C@H](Cc1c[nH]cn1)NC(=O)[C@@H](NC(=O)[C@H](CC(C)C)NC(=O)[C@H](Cc1ccccc1)NC(=O)[C@H](CC(N)=O)NC(=O)[C@H](C)NC(=O)[C@H](CC(C)C)NC(=O)[C@H](CCCNC(=N)N)NC(=O)[C@H](CCC(N)=O)NC(=O)[C@@H](NC(=O)[C@H](C)NC(=O)[C@@H]1CSSC[C@H](NC(=O)[C@@H](N)CCCCN)C(=O)N[C@@H](CC(N)=O)C(=O)N[C@@H]([C@@H](C)O)C(=O)N[C@@H](C)C(=O)N[C@@H]([C@@H](C)O)C(=O)N1)[C@@H](C)O)C(C)C)C(=O)N[C@@H](CC(C)C)C(=O)N[C@@H](CO)C(=O)N[C@@H](CO)C(=O)N[C@H](C(=O)N[C@@H](CC(N)=O)C(=O)N[C@H](C(=O)NCC(=O)N[C@@H](CO)C(=O)N[C@@H](CC(N)=O)C(=O)N[C@H](C(=O)N[C@@H](Cc1ccc(O)cc1)C(=O)O)[C@@H](C)O)C(C)C)[C@@H](C)O` [deamidated amylin], in data set [1], the “cell number or viability” value is recorded as “without affecting cell number or viability”.
“amylin (KCNTATCATQRLANFLVHSSNNFGAILSSTNVGSNTY-NH2; cysteine pairing not given here; UniProt P10997 34-70, looked up) [37 amino acid polypeptide, disulfide bridge between cysteines 2 and 7, amidated; isolated from amyloid deposits in pancreatic islets]”: in data set [2] (18 hours incubation, concentration-dependent), the “total area of bone resorbed by isolated osteoclasts” value is “marked reduction”. Moreover, the “cell number or viability” value in data set [2] (osteoclasts counted on hormone-treated and control bone slices) is recorded as “without affecting cell number or viability”. For the same molecule, in data set [2] (setting [6]), the “potency compared with CGRP” value was “more potent than CGRP” and the “potency compared with human calcitonin” value was “less potent than human calcitonin by about an order or magnitude”. Further, in the data set with isolated osteoclasts, the cell retraction entry is “evoked neither of these responses”, the cytosolic calcium entry is given as “evoked neither of these responses” and the osteoclast motility entry is on record as “inhibited osteoclast motility”. In addition, the “potency compared with human calcitonin” value in data set [3] was “comparably potent to human calcitonin”. Also, in data set [4], the “effect on plasma calcium” value is recorded as “marked lowering of plasma calcium”, the “time calcium levels continued to fall after the end of the infusion” value is 30 min and the “time until a trend to lower plasma calcium was apparent” value is at most 30 min. Moreover, the “effect on plasma calcium” value in data set [5] (50 g rats, intravenous injection of 500 pmol) is given as “marked hypocalcaemia”. Moreover, the “responses (hypocalcaemic and anti-resorptive activity) compared with calcitonin and CGRP” value in data set [5] (summary covering the in vivo and the in vitro tests, order: asu1-7-eel CT>human CT>amylin/amylin amide>CGRP) is given as “less than for calcitonin, but significantly greater than those observed with CGRP”.
For calcitonin [reference compound], in the data set with isolated osteoclasts, the cell retraction result was “caused cell retraction”, the cytosolic calcium result was “elevated cytosolic calcium” and the osteoclast motility entry is “inhibited osteoclast motility”.
